Assay results taken from the CheMixHub ionic liquid set.

Assay: xn = mol fraction of the nth substance listed

CC(=O)[O-].CN1CCCN2CCC[NH+]=C12 + O
101.3 kPa
Details	viscosity [mPa·s]
278.2 K, x1 = 0.405	1800
283.2 K, x1 = 0.103	33
283.2 K, x1 = 0.206	204
283.2 K, x1 = 0.494	1496
283.2 K, x1 = 0.604	1825
293.2 K, x1 = 0.405	378
298.2 K, x1 = 0.301	144.9
298.2 K, x1 = 0.494	339.1
303.2 K, x1 = 0.301	99.8
303.2 K, x1 = 0.604	259.2
308.2 K, x1 = 0.206	32.5
308.2 K, x1 = 0.301	70.9
313.2 K, x1 = 0.301	51.8
313.2 K, x1 = 0.494	109
318.2 K, x1 = 0.301	39.02
318.2 K, x1 = 0.494	79.4
323.2 K, x1 = 0.604	66.33
333.2 K, x1 = 0.206	10.12
338.2 K, x1 = 0.494	28.19
343.2 K, x1 = 0.103	2.76
353.2 K, x1 = 0.301	8.98
358.2 K, x1 = 0.103	1.97
358.2 K, x1 = 0.206	4.58
358.2 K, x1 = 0.604	14.29
363.2 K, x1 = 0.604	12.16
368.2 K, x1 = 0.103	1.62
368.2 K, x1 = 0.604	10.46
373.2 K, x1 = 0.103	1.5
373.2 K, x1 = 0.301	5.14
373.2 K, x1 = 0.604	9.11

CCCC[n+]1ccn(C)c1.O=[N+]([O-])[O-] + CCC(C)O
100 kPa
Details	viscosity [mPa·s]
293.15 K, x1 = 0.0813	5.4
293.15 K, x1 = 0.1595	7.3
298.15 K, x1 = 0.1595	6.1
298.15 K, x1 = 0.2402	8.4
298.15 K, x1 = 0.7398	52
298.15 K, x1 = 0.8502	79
303.15 K, x1 = 0.1595	5.3
303.15 K, x1 = 0.2402	7.2
303.15 K, x1 = 0.8502	62
308.15 K, x1 = 0.2402	6.3
308.15 K, x1 = 0.35	9.4
308.15 K, x1 = 0.9399	71
308.15 K, x1 = 1	97
313.15 K, x1 = 0.2402	5.5
313.15 K, x1 = 0.35	8.2
313.15 K, x1 = 0.9399	57
313.15 K, x1 = 1	75
318.15 K, x1 = 0.35	7.2
318.15 K, x1 = 0.4403	9.7
318.15 K, x1 = 1	56
323.15 K, x1 = 0.35	6.3
323.15 K, x1 = 0.4403	8.5

CCCC[n+]1ccn(C)c1C.F[B-](F)(F)F + CCCCn1cc[n+](C)c1C.O=S(=O)([N-]S(=O)(=O)C(F)(F)F)C(F)(F)F
100 kPa
Details	electrical conductivity [S/m]
313.15 K, x2 = 0.5	0.313
318.15 K, x2 = 0.3	0.332
318.15 K, x2 = 0.5	0.388
318.15 K, x2 = 0.8	0.493
323.15 K, x2 = 0	0.202
323.15 K, x2 = 0.2	0.398
323.15 K, x2 = 0.3	0.415
323.15 K, x2 = 0.4	0.445
328.15 K, x2 = 0	0.26
333.15 K, x2 = 0.6	0.687
338.15 K, x2 = 0	0.447
338.15 K, x2 = 0.3	0.734
338.15 K, x2 = 0.4	0.774
338.15 K, x2 = 0.6	0.806
348.15 K, x2 = 0.4	1.04
348.15 K, x2 = 0.8	1.23
348.15 K, x2 = 0.9	1.4
353.15 K, x2 = 0.8	1.32
358.15 K, x2 = 0.1	1.33
358.15 K, x2 = 0.5	1.39
358.15 K, x2 = 0.7	1.42
358.15 K, x2 = 0.8	1.49
363.15 K, x2 = 0.5	1.56

CCCC[N+](CCCC)(CCCC)CCCC.O=S(=O)([O-])O + Cc1ncc(C[n+]2csc(CCO)c2C)c(N)n1.Cl.[Cl-] + O
viscosity [mPa·s], 101 kPa
Details	298.15 K	308.15 K	318.15 K
x2 = 0.0003644, x1 = 0.0003601	0.9075	0.7352	0.6088
x2 = 0.0003645, x1 = 9.006e-05	0.9037	0.7314	0.605
x2 = 0.000365, x1 = 0.0001801	0.905	0.7327	0.6062
x2 = 0.0003656, x1 = 0.0002701	0.9062	0.7339	0.6075
x2 = 0.0006576, x1 = 0.0001801	0.9165	0.7418	0.6142
x2 = 0.0006584, x1 = 9.003e-05	0.9153	0.7406	0.6129
x2 = 0.0006587, x1 = 0.00027	0.918	0.7431	0.615
x2 = 0.0006597, x1 = 0.00036	0.919	0.7443	0.6167
x2 = 0.0009539, x1 = 9.001e-05	0.9257	0.7497	0.6208
x2 = 0.0009554, x1 = 0.00018	0.93	0.751	0.62
x2 = 0.0009567, x1 = 0.0003599	0.9295	0.7535	0.6246
x2 = 0.0009569, x1 = 0.00027	0.9283	0.7522	0.6234
x2 = 0.001253, x1 = 8.998e-05	0.9373	0.7589	0.6288
x2 = 0.001255, x1 = 0.0001799	0.9386	0.7602	0.63
x2 = 0.001255, x1 = 0.0002699	0.9398	0.7614	0.6313
x2 = 0.001257, x1 = 0.0003598	0.9411	0.7626	0.6326
x2 = 0.001555, x1 = 8.995e-05	0.9478	0.7692	0.6355
x2 = 0.001556, x1 = 0.0001799	0.9491	0.7705	0.6368
x2 = 0.001558, x1 = 0.0002698	0.95	0.7717	0.64
x2 = 0.001561, x1 = 0.0003597	0.9516	0.773	0.6393
x2 = 0.001859, x1 = 8.992e-05	0.9569	0.7784	0.6425
x2 = 0.00186, x1 = 0.0001798	0.9582	0.7797	0.6438
x2 = 0.001863, x1 = 0.0002697	0.9594	0.7809	0.6451
x2 = 0.001866, x1 = 0.0003596	0.9607	0.7822	0.6464

NCCOCCO + CN1CCCC1=O + CCCC[n+]1ccn(C)c1.O=S(=O)([N-]S(=O)(=O)C(F)(F)F)C(F)(F)F
viscosity [mPa·s], 101 kPa
Details	293.15 K	298.15 K	303.15 K	308.15 K	313.15 K	318.15 K	323.15 K	328.15 K	333.15 K
x1 = 0.2949, x2 = 0.6792	5.359	4.682	4.146	3.69	3.316	3.017	2.747	2.523	2.335
x1 = 0.3615, x2 = 0.5637	8.078	6.927	6.008	5.26	4.651	4.139	3.714	3.359	3.062
x1 = 0.4113, x2 = 0.453	12.21	10.27	8.74	7.52	6.54	5.736	5.069	4.517	4.053

CCOS(=O)(=O)[O-].CC[n+]1ccn(C)c1 + CC[n+]1ccn(C)c1.O=S(=O)([N-]S(=O)(=O)C(F)(F)F)C(F)(F)F
Details	viscosity [mPa·s]
298.15 K, 100 kPa, x2 = 0	100.6

CC[n+]1ccn(CCOC)c1.N#C[S-] + CC(C)O
viscosity [mPa·s], 100 kPa
Details	x1 = 0.1	x1 = 0.1998	x1 = 0.3234	x1 = 0.3998	x1 = 0.5003	x1 = 0.6	x1 = 0.697	x1 = 0.8002	x1 = 0.8991	x1 = 1
288.15 K	4.25	6.2	10.24	15.05	19.9	28.1	38.6	54.1	72.5	93.1
293.15 K	3.66	5.32	8.77	12.96	16.8	23	31.1	42.7	56.8	70.8
298.15 K	3.18	4.62	7.6	11.21	14.12	19.3	25.7	34.4	45	55.8
303.15 K	2.79	4.05	6.64	9.42	11.99	16.48	21.6	28.2	36.3	44.3
308.15 K	2.45	3.58	5.82	8.25	10.28	14.1	18.7	23.5	29.9	36
313.15 K	2.17	3.18	5.17	7.23	8.91	12.18	15.97	19.8	24.9	29.7
318.15 K	1.93	2.84	4.6	6.27	7.78	10.62	13.55	17.18	21.1	24.9
